Marks after values point to notes of the source that are not given here.
Test system: C. albicans
Assay: in vivo antifungal activity, candidemia in mice infected with C. albicans
Set-up: species or system Albino male mice
Details: C. albicans-infected mice; for daily body weight / % change in daily body weight / Food consumption / Mortality / Water consumption: oral 12 mg/kg then 6 mg/ml
Experimental: To confirm that the water soluble form of the compound 4 has a biological activity as a novel antimicrobial agent, effectiveness of the compound 4 as a drug to treat candidemia in mice was investigated. The experiment was performed in Experimental Animal Care Center (EACC), College of Pharmacy, King Saud University, Riyadh. Fifty Albino male mice, weighing nearly 30±2 gram were used. The mice were arranged in five groups, each including ten mice caged together, given water, and feed ad libitum. Negative control and control group were infected intravenously with 0.2 ml of C. albicans suspension (10^6 CFU/mouse) and 0.2 ml of sterile normal saline (0.89% Nacl) respectively. The group treated with standard drug (fluconazole) was infected intravenously with 0.2 ml of C. albicans suspension (10^6 CFU/mouse) and treated (orally) by 12 mg/kg of fluconazole (loading dose) on the first day followed by 6 mg/ml for 2 weeks. The group treated with the investigated compound 4 was infected intravenously with C. albicans at 10^6 CFU/mouse (0.2 ml) and treated (orally) by 12 mg/kg of the compound 4 (loading dose) on the first day followed by 6 mg/ml for 2 weeks. To study the biological effects of compound 4, a fifth group was designed. In this group the mice were treated intravenously (I. V) with 12 mg/kg of the compound 4 on the first day followed by 6 mg/ml for 2 weeks. All doses of the standard drug and compound 4 were given twice daily.
The effectiveness of the previous treatments on some biological concepts were evaluated. The biological parameters included daily body weight (gm), mortality (%), food consumption (g/day/mouse), water consumption (ml/day/mouse), serum glutamic oxaloacetic transaminase [SGOT(AST) (U/L)], serum glutamic-pyruvic transaminase [SGPT(ALT)(U/L)], alkaline phosphatase (U/L), gamma-glutamyl transferase (GGT) (U/L), bilirubin (mg/dl)], cholesterol (mg/dl), triglycerides (mg/dl), high-density lipoprotein (HDL) (mg/dl), very-low-density lipoprotein (VLDL) (mg/dl), low-density lipoprotein (LDL) (mg/dl), lactate dehydrogenase (LDH) (U/L), glucose (mg/dl), total protein (mg/dl), malondialdehyde (MDA) (nmol/g), nonprotein sulfyhydryl (NP-SH) (nmol/g). Addition hematologic constituents including white blood cells (WBC) (cell/mm^3), red blood cells (RBC) (10^6/mm^3), hemoglobin (HGB) (g/dL), HCT, Platelets (PLT) (10^3/mm^3), mean corpuscular volume (MCV) (fL), mean corpuscular hemoglobin (MCH) (pg), mean corpuscular hemoglobin concentration (MCHC) (g/dL), neutrophils (%), lymphocytes (%), eosinophils (%) and monocytes (%)] were evaluated (Classics Lowry et al. 1951; Utley et al. 1967; Sedlak et al. 1968). SGOT (AST), SGPT (ALT), ALP, GGT, bilirubin LDH and total protein were estimated using Reflotron Plus Analyzer and Roche kits (Roche Diagnostics GmbH, Mannheim Germany) and United diagnostic kits assay. Hematological tests were performed by Mindray BC-2800VET auto Hematology Analyzer.

[1] = blood, oral 12 mg/kg then 6 mg/ml for 2 weeks
[2] = liver tissue, oral 12 mg/kg then 6 mg/ml for 2 weeks
[3] = serum, oral 12 mg/kg then 6 mg/ml for 2 weeks

OC(Cn1cncn1)(Cn1cncn1)c1ccc(F)cc1F [fluconazole, reference compound]
daily body weight (day 0): 19.70 ± 0.47 gm
% change in daily body weight (day 1): 0.50%
Food consumption (day 1): 4.3 g/day/mice
Mortality (day 1): 0%
Water consumption (day 1): 4.8 g/day/mice
daily body weight (day 1): 19.80 ± 0.35 gm
% change in daily body weight (day 2): 10.65%
Food consumption (day 2): 4.3 g/day/mice
Mortality (day 2): 0%
Water consumption (day 2): 4.8 g/day/mice
daily body weight (day 2): 21.80 ± 0.24 gm
% change in daily body weight (day 3): 13.19%
Food consumption (day 3): 4.5 g/day/mice
Mortality (day 3): 0%
Water consumption (day 3): 4.9 g/day/mice
daily body weight (day 3): 22.30 ± 0.21 gm
% change in daily body weight (day 4): 13.70%
Food consumption (day 4): 4.6 g/day/mice
Mortality (day 4): 0%
Water consumption (day 4): 5.0 g/day/mice
daily body weight (day 4): 22.40 ± 0.22 gm
% change in daily body weight (day 5): 21.31%
Food consumption (day 5): 4.6 g/day/mice
Mortality (day 5): 0%
Water consumption (day 5): 5.2 g/day/mice
daily body weight (day 5): 23.90 ± 0.31 gm
% change in daily body weight (day 6): 21.82%
Food consumption (day 6): 4.7 g/day/mice
Mortality (day 6): 0%
Water consumption (day 6): 5.2 g/day/mice
daily body weight (day 6): 24.00 ± 0.29 gm
% change in daily body weight (day 7): 22.95%
Food consumption (day 7): 5.0 g/day/mice
Mortality (day 7): 10%
Water consumption (day 7): 5.1 g/day/mice
daily body weight (day 7): 24.22 ± 0.22 gm
% change in daily body weight (day 8): 24.08%
Food consumption (day 8): 5.1 g/day/mice
Mortality (day 8): 10%
Water consumption (day 8): 5.2 g/day/mice
daily body weight (day 8): 24.44 ± 0.24 gm
% change in daily body weight (day 9): 24.36%
Food consumption (day 9): 4.7 g/day/mice
Mortality (day 9): 20%
Water consumption (day 9): 5.2 g/day/mice
daily body weight (day 9): 24.50 ± 0.18 gm
% change in daily body weight (day 10): 26.29%
Food consumption (day 10): 5.00 g/day/mice
Mortality (day 10): 20%
Water consumption (day 10): 5.3 g/day/mice
daily body weight (day 10): 24.87 ± 0.29 gm
% change in daily body weight (day 11): 28.17%
Food consumption (day 11): 5.1 g/day/mice
Mortality (day 11): 20%
Water consumption (day 11): 5.3 g/day/mice
daily body weight (day 11): 25.25 ± 0.25 gm
% change in daily body weight (day 12): −28.80%
Food consumption (day 12): 5.62 g/day/mice
Mortality (day 12): 20%
Water consumption (day 12): 5.5 g/day/mice
daily body weight (day 12): 25.37 ± 0.26 gm
% change in daily body weight (day 13): 31.97%
Food consumption (day 13): 5.2 g/day/mice
Mortality (day 13): 30%
Water consumption (day 13): 5.4 g/day/mice
daily body weight (day 13): 26.00 ± 0.30 gm
% change in daily body weight (day 14): 33.43%
Food consumption (day 14): 5.2 g/day/mice
Mortality (day 14): 30%
Water consumption (day 14): 5.4 g/day/mice
daily body weight (day 14): 26.28 ± 0.28 gm
% change in daily body weight (day 15): 35.60%
Food consumption (day 15): 5.5 g/day/mice
Mortality (day 15): 30%
Water consumption (day 15): 5.7 g/day/mice
daily body weight (day 15): 26.71 ± 0.28 gm
Eosinophils Mean ± SE [1]: 1.61 ± 0.10%
HCT Mean ± SE [1]: 35.05 ± 1.5
HGB Mean ± SE [1]: 11.1 ± 0.18 g/dL
Lymphocytes Mean ± SE [1]: 6.2 ± 0.1%
MCH Mean ± SE [1]: 28.2 ± 0.7 pg
MCHC Mean ± SE [1]: 24.3 ± 0.5 g/dL
MCV Mean ± SE [1]: 72.04 ± 2.6 fL
Monocytes Mean ± SE [1]: 1.06 ± 0.02%
Neutrophils Mean ± SE [1]: 25.9 ± 0.5%
PLT Mean ± SE [1]: 563.8 ± 17.4 10^3/mm^3
RBC Mean ± SE [1]: 7.50 ± 0.23 10^6/mm^3
WBC Mean ± SE [1]: 8233.2 ± 83.7 Cell/mm^3
MDA [2]: 2.33 ± 0.07***^b nmol/g
NP-SH [2]: 4.21 ± 0.18***^b nmol/g
Total Protein [2]: 92.72 ± 1.54***^b g/l
Alkaline phosphatase Mean ± SE [3]: 321.28 ± 6.91 U/L
Bilirubin Mean ± SE [3]: 0.75 ± 0.03 mg/dL
Cholesterol Mean ± SE [3]: 134.8 ± 3.6 mg/dL
GGT Mean ± SE [3]: 5.60 ± 0.17 U/L
Glucose level Mean ± SE [3]: 143.85 ± 2.47***^b mg/dl
HDL Mean ± SE [3]: 29.8 ± 0.9 mg/dL
LDH Mean ± SE [3]: 184.92 ± 5.08***^b U/L
LDL Mean ± SE [3]: 83.9 ± 3.3 mg/dL
SGOT(AST) Mean ± SE [3]: 143.28 ± 2.88 U/L
SGPT(ALT) Mean ± SE [3]: 50.48 ± 3.17 U/L
Triglycerides Mean ± SE [3]: 105.1 ± 2.2 mg/dL
VLDL Mean ± SE [3]: 21.0 ± 0.4 mg/dL

From patent US9988348B1, “Synthesis and antimicrobial use of a trithiocarbonate derivative” (KING SAUD UNIVERSITY, priority 2017, dated 2018)
